Measured values taken from ChEMBL document CHEMBL4431301, “The Medicinal Chemistry of Dengue Virus” (J Med Chem, 2016).
Where a SMILES comes first, the peptide text is derived from it.

Tests used:
[1] = tested on: dengue virus type 1; test: Antiviral activity against Dengue virus 1 P03-08 infected in african green monkey Vero cells assessed as reduction in virus replication after 72 hrs by foci-forming assay; assay type: functional, organism-based; conditions: P03-08, Vero
[2] = Cytotoxicity against african green monkey Vero cells after 72 hrs by MTT assay; assay type: cell-based; conditions: chlorocebus sabaeus
[3] = tested on: dengue virus type 3; test: Antiviral activity against Dengue virus 3 P12-08 infected in african green monkey Vero cells assessed as reduction in virus replication after 72 hrs by foci-forming assay; assay type: functional, organism-based; conditions: P12-08, Vero
[4] = tested on: dengue virus type 2; test: Antiviral activity against Dengue virus 2 NGC infected in african green monkey Vero cells assessed as reduction in virus replication after 72 hrs by foci-forming assay; assay type: functional, organism-based
[5] = tested on: dengue virus type 4; test: Antiviral activity against Dengue virus 4 P11-08 infected in african green monkey Vero cells assessed as reduction in virus replication after 72 hrs by foci-forming assay; assay type: functional, organism-based; conditions: P11-08, Vero
[6] = tested on: dengue virus type 2; test: Antiviral activity against Dengue virus 2 NGC infected in BHK21 cells assessed as reduction in viral titer after 48 hrs by plaque assay; assay type: functional, organism-based; conditions: BHK-21, 48 h
[7] = tested on: dengue virus type 4; test: Antiviral activity against Dengue virus 4 H241 infected in BHK21 cells assessed as reduction in viral titer after 48 hrs by plaque assay; assay type: functional, organism-based; conditions: H241, BHK-21, 48 h
[8] = tested on: dengue virus type 2; test: Antiviral activity against Dengue virus 2 NGC infected in human A549 cells assessed as reduction in viral envelope protein production after 48 hrs by CFI assay; assay type: functional, organism-based; conditions: A549, 48 h
[9] = tested on: dengue virus type 3; test: Antiviral activity against Dengue virus 3 H87 infected in BHK21 cells assessed as reduction in viral titer after 48 hrs by plaque assay; assay type: functional, organism-based; conditions: H87, BHK-21, 48 h
[10] = tested on: dengue virus type 1; test: Antiviral activity against Dengue virus 1 West Pacific infected in BHK21 cells assessed as reduction in viral titer after 48 hrs by plaque assay; assay type: functional, organism-based; conditions: BHK-21, 48 h
[11] = tested on: dengue virus type 4; test: Antiviral activity against Dengue virus 4 H241 infected in african green monkey Vero cells assessed as blockage of viral entry after 72 hrs by foci-forming assay; assay type: functional, organism-based
[12] = tested on: dengue virus type 2; test: Antiviral activity against Dengue virus 2 16681 infected in african green monkey Vero cells assessed as blockage of viral entry after 72 hrs by foci-forming assay; assay type: functional, organism-based; conditions: Dengue virus, 16681, Vero
[13] = tested on: dengue virus type 1; test: Antiviral activity against Dengue virus 1 Hawaii infected in african green monkey Vero cells assessed as blockage of viral entry after 72 hrs by foci-forming assay; assay type: functional, organism-based
[14] = tested on: dengue virus type 3; test: Antiviral activity against Dengue virus 3 H87 infected in african green monkey Vero cells assessed as blockage of viral entry after 72 hrs by foci-forming assay; assay type: functional, organism-based
[15] = tested on: dengue virus type 2; test: Antiviral activity against Dengue virus 2 NGC infected in african green monkey Vero cells preincubated with virus for 5 mins followed by cell infection for 5 mins by immunofluorescence analysis; assay type: functional, organism-based
[16] = target: DEN4V NS2B-G4SG4NS3 serine protease (Dengue virus type 4, UniProt P09866); test: Non-competitive inhibition of Dengue virus 4 NS3 helicase
[17] = target: Genome polyprotein (dengue virus type 2, UniProt P29990); test: Inhibition of recombinant Dengue virus 2 S-16803 NS2B-NS3 protease using Bz-nKRRAMC as substrate preincubated with enzyme followed by substrate addition measured after 20 mins by fluorescence assay
[18] = tested on: dengue virus type 2; test: Antiviral activity against Dengue virus 2 NGC infected in monkey LLC-MK2 cells preincubated with virus for 1 hr followed by cell infection for 1 hr by focus forming unit assay; assay type: functional, organism-based
[19] = Selectivity index, ratio of CC50 for human A549 cells to EC50 for Dengue virus 2 infected in human A549 cells; assay type: toxicity, cell-based; conditions: read-out: Ratio CC50/EC50
[20] = tested on: dengue virus type 2; test: Antiviral activity against Dengue virus 2 infected in human A549 cells assessed as decrease in viral envelope protein production after 48 hrs by CFI assay; assay type: functional, organism-based; conditions: A549, 48 h

Genome polyprotein, sequence (P29990 1346-1475 limits assumed): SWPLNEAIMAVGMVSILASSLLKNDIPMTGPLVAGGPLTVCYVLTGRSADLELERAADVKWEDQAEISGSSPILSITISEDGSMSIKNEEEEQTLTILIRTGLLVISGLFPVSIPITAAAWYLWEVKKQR
Genome polyprotein, sequence (P29990 1476-2093 limits assumed): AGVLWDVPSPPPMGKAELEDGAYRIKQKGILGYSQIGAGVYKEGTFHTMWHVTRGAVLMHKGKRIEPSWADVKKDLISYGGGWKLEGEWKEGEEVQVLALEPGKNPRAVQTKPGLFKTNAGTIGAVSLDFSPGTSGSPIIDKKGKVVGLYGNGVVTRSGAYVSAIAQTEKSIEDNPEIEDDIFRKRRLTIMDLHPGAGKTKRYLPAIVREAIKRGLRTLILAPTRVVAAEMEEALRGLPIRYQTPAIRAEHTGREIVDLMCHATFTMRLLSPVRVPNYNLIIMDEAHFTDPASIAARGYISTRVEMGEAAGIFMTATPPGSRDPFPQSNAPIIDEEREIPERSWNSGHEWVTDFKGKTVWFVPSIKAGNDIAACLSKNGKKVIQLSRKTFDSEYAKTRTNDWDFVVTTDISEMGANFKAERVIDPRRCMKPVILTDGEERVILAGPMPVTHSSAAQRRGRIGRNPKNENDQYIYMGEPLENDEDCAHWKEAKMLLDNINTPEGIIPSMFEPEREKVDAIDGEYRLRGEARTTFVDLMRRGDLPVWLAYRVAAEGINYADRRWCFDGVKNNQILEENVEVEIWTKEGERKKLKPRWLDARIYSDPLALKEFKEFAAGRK

SMILES: Cc1ccc(S(=O)(=O)Nc2cc(SCC(=O)O)c(O)c3ccccc23)cc1[N+](=O)[O-]
- EC50 [1]: 0.97 µM
- CC50 at 72 h [2]: 67.3 µM
- EC50 [3]: 2.43 µM
- EC50 [4]: 0.98 µM
- EC50 [5]: 0.74 µM

SMILES: COc1ccc(-c2csc(NC(=O)c3cc(C(C)(C)C)cc(C(C)(C)C)c3)n2)cc1
- EC50 [6]: 1.6 µM
- EC50 [7]: 1 to 4.1 µM
- EC50 [8]: 1 µM
- EC50 [9]: 1 to 4.1 µM
- EC50 [10]: 1 to 4.1 µM

SMILES: CC[C@H](C)[C@H](NC(=O)[C@H](Cc1c[nH]c2ccccc12)NC(=O)[C@@H](NC(=O)[C@H](CCC(=O)O)NC(=O)[C@@H](NC(=O)[C@H](CCCNC(=N)N)NC(=O)[C@H](CCC(N)=O)NC(=O)[C@@H](NC(=O)[C@H](Cc1cnc[nH]1)NC(=O)[C@H](CCCCN)NC(=O)[C@H](Cc1c[nH]c2ccccc12)NC(=O)[C@H](C)NC(=O)CNC(=O)[C@H](CCC(=O)O)NC(=O)[C@H](CO)NC(=O)[C@H](CO)NC(=O)[C@H](CCSC)NC(=O)[C@H](Cc1c[nH]c2ccccc12)NC(=O)[C@@H](NC(=O)[C@H](CCC(=O)O)NC(=O)[C@@H](NC(=O)[C@H](CCCNC(=N)N)NC(=O)[C@@H](NC(=O)[C@H](CCC(=O)O)NC(=O)[C@H](CC(C)C)NC(=O)CNC(=O)[C@H](CCSC)NC(=O)CNC(=O)[C@@H](NC(=O)[C@H](Cc1cnc[nH]1)NC(=O)[C@@H]1CCCN1C(=O)[C@@H](NC(=O)[C@H](CC(C)C)NC(=O)[C@H](C)NC(=O)[C@@H](NC(=O)[C@@H](N)CO)C(C)C)C(C)C)C(C)C)[C@@H](C)O)[C@@H](C)O)[C@@H](C)O)C(C)C)[C@@H](C)CC)[C@H](C)O)C(=O)N[C@@H](CC(C)C)C(=O)N[C@@H](CCCNC(=N)N)C(=O)N[C@@H](Cc1cnc[nH]1)C(=O)N1CCC[C@H]1C(=O)NCC(=O)O
- EC50 [11]: 24 to 31 µM
- EC50 [12]: 24 to 31 µM
- EC50 [13]: 24 to 31 µM
- EC50 [14]: 24 to 31 µM

SMILES: Cc1ccc(C(=O)Nc2ccc(S(=O)(=O)O)c3cc(S(=O)(=O)O)cc(S(=O)(=O)O)c23)cc1NC(=O)c1cccc(NC(=O)Nc2cccc(C(=O)Nc3cc(C(=O)Nc4ccc(S(=O)(=O)O)c5cc(S(=O)(=O)O)cc(S(=O)(=O)O)c45)ccc3C)c2)c1 [SURAMIN]
- EC50 [15]: 40 µM
- Ki [16]: 0.75 µM

SMILES: N#C/C(=C\c1ccc(-c2ccc(C(=O)O)cc2)s1)c1nc2cc(Cl)ccc2[nH]1
- IC50 [17]: 5.95 µM

SMILES: CC[C@H](C)[C@H](NC(=O)[C@H](CC(C)C)NC(=O)[C@@H](NC(=O)[C@H](Cc1ccccc1)NC(=O)[C@H](Cc1c[nH]c2ccccc12)NC(=O)[C@@H](N)Cc1ccccc1)[C@@H](C)O)C(=O)N[C@@H](CCCCN)C(=O)N[C@H](C(=O)N[C@@H](CCC(N)=O)C(=O)N[C@@H](C)C(=O)N[C@@H](CCCCN)C(=O)N[C@@H](CCC(N)=O)C(=O)N1CCC[C@H]1C(=O)N[C@@H](C)C(=O)N[C@@H](CCCNC(=N)N)C(=O)N[C@@H](Cc1ccc(O)cc1)C(=O)N[C@@H](CCCNC(=N)N)C(=O)N[C@@H](CCCNC(=N)N)C(=O)N[C@@H](Cc1ccccc1)C(=O)N[C@@H](CS)C(=O)O)[C@@H](C)O (H-FWFTLIKTQAKQPARYRRFC-OH)
- IC50 [18]: 7 µM

SMILES: CC(=O)O[C@H]1[C@H]2c3cc4c(cc3CN3CCC(=C[C@@H]1O)[C@H]23)OCO4
- selectivity ratio [19]: > 750
- EC50 [20]: 0.4 µM
